Reference: the supplement of paper PMC3068080

What was measured:
TGFBR2 mRNA [1] = test: remaining TGFBR2 mRNA relative to control siRNA (off-target knock-down) (fraction of control); quantification method: branched DNA (R1), qPCR (R2); higher = less knock-down
Protocol: (§1)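 Screen-hit siRNA duplexes (19-mer plus 3' dTdT overhang) were transiently transfected into HaCaT cells in 12-well plates. After 48 h, TGFBR1 and TGFBR2 mRNA were quantified by branched DNA assay (QuantiGene, normalised to HPRT1) or by SYBR qPCR (normalised to HPRT1/SMAD4). Values are the remaining mRNA relative to control-siRNA-transfected cells; 1-2 biological replicates.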

TGFBR1 mRNA [2] = test: remaining TGFBR1 mRNA relative to control siRNA (off-target knock-down) (fraction of control); quantification method: branched DNA (R1), qPCR (R2); higher = less knock-down
Protocol: as §1

TGFBR2 mRNA [3] = test: remaining TGFBR2 mRNA relative to control siRNA (off-target knock-down) (fraction of control); quantification method: qPCR; higher = less knock-down
Protocol: as §1

TGFBR1 mRNA [4] = test: remaining TGFBR1 mRNA relative to control siRNA (off-target knock-down) (fraction of control); quantification method: qPCR; higher = less knock-down
Protocol: as §1

TGFBR2 mRNA [5] = test: remaining TGFBR2 mRNA relative to control siRNA (off-target knock-down) (fraction of control); quantification method: branched DNA; higher = less knock-down
Protocol: as §1

TGFBR1 mRNA [6] = test: remaining TGFBR1 mRNA relative to control siRNA (off-target knock-down) (fraction of control); quantification method: branched DNA; higher = less knock-down
Protocol: as §1

| Sequence | remaining TGFBR2 mRNA (TGFBR2 mRNA [5]) | remaining TGFBR1 mRNA (TGFBR1 mRNA [6]) | other results |
| --- | --- | --- | --- |
| AGGAUCAGCAGCCCGUAGCTT | – | – | remaining TGFBR2 mRNA (TGFBR2 mRNA [1]): 0.72; remaining TGFBR1 mRNA (TGFBR1 mRNA [2]): 1.52 |
| UCUCGCUGACGAAGCAGUATT | – | – | remaining TGFBR2 mRNA (TGFBR2 mRNA [1]): 0.75; remaining TGFBR1 mRNA (TGFBR1 mRNA [2]): 1.1 |
| AUGAUGUCAUCGGCUGUGGTT | – | – | remaining TGFBR2 mRNA (TGFBR2 mRNA [3]): 0.15; remaining TGFBR1 mRNA (TGFBR1 mRNA [4]): 0.68 |
| AGCUCAAACAGUAUCUGGUTT | – | – | remaining TGFBR2 mRNA (TGFBR2 mRNA [1]): 0.7; remaining TGFBR1 mRNA (TGFBR1 mRNA [2]): 1.45 |
| AACUGGUUCAGGUACUUCCTT | – | – | remaining TGFBR2 mRNA (TGFBR2 mRNA [1]): 0.71; remaining TGFBR1 mRNA (TGFBR1 mRNA [2]): 0.95 |
| AUGUGUACAGCCCUCUUCCTT | – | – | remaining TGFBR2 mRNA (TGFBR2 mRNA [1]): 0.65; remaining TGFBR1 mRNA (TGFBR1 mRNA [2]): 1.84 |
| UUAUUUGGGUGGGCUGGGGTT | – | – | remaining TGFBR2 mRNA (TGFBR2 mRNA [1]): 0.75; remaining TGFBR1 mRNA (TGFBR1 mRNA [2]): 0.98 |
| CUCUGGGGAUUUGGAGGAUTT | – | – | remaining TGFBR2 mRNA (TGFBR2 mRNA [1]): 0.71; remaining TGFBR1 mRNA (TGFBR1 mRNA [2]): 1.07 |
| UGUGUAGCACAUGGGACACTT | 0.73 | 1.05 | – |
| UUUGGACUGGUUGGCACAGTT | 0.69 | 1.11 | – |
| UCUACCCAGAACUCCACGATT | 1.01 | 0.14 | – |
| AUCCUUGUCUGGAACAGUGTT | 0.25 | 1.33 | – |
| AGCCUCUGGAGAAUCUCCUTT | 0.6 | 1.04 | – |
| AUCCUGCAGAAUCACGUCCTT | – | – | remaining TGFBR2 mRNA (TGFBR2 mRNA [1]): 0.7; remaining TGFBR1 mRNA (TGFBR1 mRNA [2]): 0.93 |
| UGCUUAUCUCAUCUGAAGCTT | 0.28 | 0.93 | – |
| UUUCAUUCCAUUGGAAUUUTT | 0.59 | 1.25 | – |
| GCUGAAUGAGGGUAGUCUUTT | 0.64 | 0.28 | – |
| AUGCACUGAAGAAUUUCUUTT | 0.75 | 0.43 | – |
| AGAUCACCGCGUAGACAACTT | 0.65 | 1.01 | – |
| UUGUCAAAGUGGAACGCUCTT | 0.29 | 0.83 | – |
| UGUACUUCUCCUUGGAGAATT | 0.64 | 0.8 | – |
| UCCUUGUCCUUGGACAGUGTT | 0.24 | 1.14 | – |
| GAAGGUGUGAGUGAGGUCATT | 1.17 | 0.19 | – |

| Sequence | remaining TGFBR2 mRNA (TGFBR2 mRNA [5]) | remaining TGFBR1 mRNA (TGFBR1 mRNA [6]) | other results |
| --- | --- | --- | --- |
| AGGUCAUCACGUACUUUUUTT | 1.09 | 0.16 | – |
| CUGACCAUGCAGAGGAUGATT | 0.82 | 0.83 | – |
| AAAUGCUCCACCUCUCGGGTT | 0.28 | 0.37 | – |
| GAGUGACCUGCUCCUCUAATT | 0.61 | 1.01 | – |
| GGGCUGUCAAUGACAGCUUTT | 0.6 | 0.82 | – |
| AGUUCUCUCAAUUGCUUACTT | 0.54 | 0.92 | – |
| AACACCAUCUACUUGAUGGTT | – | – | remaining TGFBR2 mRNA (TGFBR2 mRNA [1]): 0.78; remaining TGFBR1 mRNA (TGFBR1 mRNA [2]): 1.31 |
| AUGUAUAGUCACGCAGUUCTT | 0.24 | 0.98 | – |
| UUUGGAGCUCCCCAAACGCTT | 0.26 | 0.39 | – |
| AGACGGCAAACGACUGUCCTT | – | – | remaining TGFBR2 mRNA (TGFBR2 mRNA [1]): 0.75; remaining TGFBR1 mRNA (TGFBR1 mRNA [2]): 1.27 |
| UAUCUCAUGAAAGCGCUUCTT | 0.25 | 1.12 | – |
| UGAUAGCACCAACACAAAGTT | 0.74 | 0.44 | – |
| AAAAACCCUUUCCUGGGGCTT | 0.21 | 0.36 | – |
| AUAAGCAGUGAGAACGAGCTT | 1.26 | 0.5 | – |
| UGGAAGACGCUUUAAAGGCTT | 0.48 | 0.85 | – |
| AUUAUGUCCUCUACGAUUATT | 0.49 | 0.76 | – |
| CUUGACUUCUGGGGUCCACTT | 0.94 | 0.92 | – |
| AUCCUUGGCCAGUUUGGUCTT | 0.15 | 1.19 | – |
| GAUGGACUGCAUACAUUGGTT | 0.87 | 0.29 | – |
| UUCAAUAGUUGUCAGAGGCTT | 1.62 | 1.35 | – |
| UGGCCGUCAAUGUAUUUCUTT | 0.7 | 1.25 | – |
| UAGCAUUCAUUUUCCGUGGTT | 0.27 | 0.72 | – |
| UCCCGUACUGGUUCUGGGGTT | 0.81 | 1.1 | – |

| Sequence | remaining TGFBR2 mRNA (TGFBR2 mRNA [5]) | remaining TGFBR1 mRNA (TGFBR1 mRNA [6]) | other results |
| --- | --- | --- | --- |
| AAUUGGCUCCACAGUCUUUTT | 0.44 | 1.23 | – |
| UCAACAAGCUAAGUCUGCCTT | 0.72 | 1.1 | – |
| UGUCUCCUCUCUUGUCCGUTT | – | – | remaining TGFBR2 mRNA (TGFBR2 mRNA [1]): 0.7; remaining TGFBR1 mRNA (TGFBR1 mRNA [2]): 0.95 |
| UUUCAGCAAUACAAGCCCGTT | 0.68 | 0.39 | – |
| UGAUGUUGUCUUGUCUGGUTT | 0.42 | 0.44 | – |
| UUCCCUGCUACUGUUGCUUTT | 0.72 | 0.84 | – |
| AAAAGGCCUUCAAGCUGUUTT | 0.41 | 0.56 | – |
| UCAAGGUGGACAAAGCUCUTT | 0.29 | 0.74 | – |
| AGCCAGAAACUCAGACACCTT | 0.67 | 0.99 | – |
| ACUGGAUCAGUCGCAGAAUTT | 0.38 | 1.15 | – |
| AGCUUGUGCCAAGUGCCAUTT | 0.33 | 0.92 | – |
| CUACCAUCAAUCCGGUAGGTT | 0.84 | 0.94 | – |
| UAACGUGUGUAUGUCUGGCTT | 0.69 | 0.3 | – |
| AGUGGUACCACGAGCAAAGTT | 0.66 | 0.88 | – |
| UCAAGCCCAGAGGUGUCAUTT | 1 | 1.24 | – |
| ACAGCCUCGAACACUGACATT | 0.58 | 1.04 | – |
| AUUGAAGCCACCAUUCUCCTT | 0.94 | 0.23 | – |
| AGACUACUGUGGCCAGUAATT | 1.1 | 1.22 | – |
| UCCUUGGUGUAUUCUAACATT | 0.42 | 0.93 | – |
| GUUCUUGGGCUAUGUCCAATT | 0.32 | 0.89 | – |
| ACCUUACCUUGUCGACGAATT | 0.56 | 0.7 | – |
| UUGAGCGAUUCCAGCUGCATT | 0.85 | 1.77 | – |
| ACUACGACUCAGUGCCUGGTT | – | – | remaining TGFBR2 mRNA (TGFBR2 mRNA [1]): 0.7; remaining TGFBR1 mRNA (TGFBR1 mRNA [2]): 1 |

| Sequence | remaining TGFBR2 mRNA (TGFBR2 mRNA [5]) | remaining TGFBR1 mRNA (TGFBR1 mRNA [6]) | other results |
| --- | --- | --- | --- |
| UCUCGGAGGCAGUUCCAGCTT | 0.82 | 0.86 | – |
| UCCAAGUCGAGAAGAGACCTT | 0.46 | 0.9 | – |
| UGCACCUGACUUUUCUCUGTT | – | – | remaining TGFBR2 mRNA (TGFBR2 mRNA [1]): 0.72; remaining TGFBR1 mRNA (TGFBR1 mRNA [2]): 1.37 |
| UGAAUAACCCUCUGGACAGTT | 0.83 | 0.45 | – |
| AUGGUGUUUGCAAGCUCCUTT | 0.36 | 1 | – |
| CAAACAGCGGUUGGAAUAATT | 0.33 | 0.81 | – |
| AGGUUGUGGGCAAAGAUGUTT | 0.83 | 0.92 | – |
| UUGUAAAAACCAGGCGACCTT | 0.33 | 1.48 | – |
| UGUAGUGAAUUCCAAAGAGTT | 0.41 | 0.47 | – |
| AUAAGACAAGUGGUCGGGGTT | 0.94 | 0.52 | – |
| AAUGCUGUUGGCAGCCAGATT | 0.11 | 0.71 | – |
| AGAAGUGUGACACGGGUCUTT | 0.15 | 0.93 | – |
| UCAUAAGCAUGCUCCACACTT | 0.62 | 0.14 | – |
| UGCAUUGGCUCCCACUUCATT | 0.33 | 0.26 | – |
| AGACUGCAAAUAUUCCUGATT | 0.49 | 1.31 | – |
| UGGACAUGGAGUGGCCUGATT | 0.55 | 1.09 | – |
| GAGGUUGUUGUUGAGCUCGTT | 0.73 | 0.96 | – |
| AGGCAACAGGGAUGAGAUGTT | 0.2 | 0.93 | – |
| CAGUCUCAUCGUCCUCAUCTT | 0.69 | 1.07 | – |
| UUAUUGGGCAAAAUCCGGGTT | 0.72 | 0.88 | – |
| AUGUUCCGCCUGCUUUUGCTT | 0.38 | 1.19 | – |
| UUUCCUGGCCUCCUGGAACTT | 0.29 | 0.94 | – |
| UGGGCUUUUCUCUUCUCUCTT | 1.43 | 1.47 | – |
